These results are taken from US10975056B2 (GlaxoSmithKline Intellectual Property Development Limited, priority 2016, dated 2021).

The target in test [1] is DNMT1 (Homo sapiens, UniProt P26358). Kind of test: DNMT1 biochemical activity, breaklight assay and/or SPA assay.
Test [2] deals with erythroid progenitor cells (EPCs). In words: Fetal hemoglobin (HbF) ELISA in day 7 erythroid progenitor cells.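 Also: for fetal hemoglobin induction normalized to vehicle-treated cells.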 The class given is cell-based, human. The conditions noted are these: Homo sapiens, Erythroid progenitor cell, HbF ELISA, day 7 EPCs, 5 days; read-out: EPC ELISA (pEC50 category) (converted). A digest of the protocol: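 CD34+-derived EPCs, 1,000 cells/well, rhEPO 3 U/mL; Compound A 22-pt series, […]; 5 d, 37° C, 5% CO2. Freeze-thaw lysis, anti-HbF capture + HRP anti-HbF, TMB, OD450. Normalized to DMSO wells.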
A general note: In an ELISA, binding on a coated surface is turned into a signal by an enzyme label.

Where [3] appears, read: binned activity in either the breaklight or the SPA assay.
Where [4] appears, read: binned activity in either the breaklight or the SPA assay, read-out: DNMT1 BioChemical (pIC50 category) (converted).
The mark [5] stands for this setting: breaklight assay and/or SPA assay, repeated experimental runs, read-out: average pIC50 against DNMT1 (converted).

Values joined by “and” are separate entries in the source; they are usually repeats but may differ in a detail not shown here. Equal entries are not always repeated. Structures can show the parent of a compound that is named as a salt. Where two headings read alike, the source gives them in different places. Where only a bound is given, the exact number is not on record here.

Sequence of DNMT1 (P26358 whole entry, looked up): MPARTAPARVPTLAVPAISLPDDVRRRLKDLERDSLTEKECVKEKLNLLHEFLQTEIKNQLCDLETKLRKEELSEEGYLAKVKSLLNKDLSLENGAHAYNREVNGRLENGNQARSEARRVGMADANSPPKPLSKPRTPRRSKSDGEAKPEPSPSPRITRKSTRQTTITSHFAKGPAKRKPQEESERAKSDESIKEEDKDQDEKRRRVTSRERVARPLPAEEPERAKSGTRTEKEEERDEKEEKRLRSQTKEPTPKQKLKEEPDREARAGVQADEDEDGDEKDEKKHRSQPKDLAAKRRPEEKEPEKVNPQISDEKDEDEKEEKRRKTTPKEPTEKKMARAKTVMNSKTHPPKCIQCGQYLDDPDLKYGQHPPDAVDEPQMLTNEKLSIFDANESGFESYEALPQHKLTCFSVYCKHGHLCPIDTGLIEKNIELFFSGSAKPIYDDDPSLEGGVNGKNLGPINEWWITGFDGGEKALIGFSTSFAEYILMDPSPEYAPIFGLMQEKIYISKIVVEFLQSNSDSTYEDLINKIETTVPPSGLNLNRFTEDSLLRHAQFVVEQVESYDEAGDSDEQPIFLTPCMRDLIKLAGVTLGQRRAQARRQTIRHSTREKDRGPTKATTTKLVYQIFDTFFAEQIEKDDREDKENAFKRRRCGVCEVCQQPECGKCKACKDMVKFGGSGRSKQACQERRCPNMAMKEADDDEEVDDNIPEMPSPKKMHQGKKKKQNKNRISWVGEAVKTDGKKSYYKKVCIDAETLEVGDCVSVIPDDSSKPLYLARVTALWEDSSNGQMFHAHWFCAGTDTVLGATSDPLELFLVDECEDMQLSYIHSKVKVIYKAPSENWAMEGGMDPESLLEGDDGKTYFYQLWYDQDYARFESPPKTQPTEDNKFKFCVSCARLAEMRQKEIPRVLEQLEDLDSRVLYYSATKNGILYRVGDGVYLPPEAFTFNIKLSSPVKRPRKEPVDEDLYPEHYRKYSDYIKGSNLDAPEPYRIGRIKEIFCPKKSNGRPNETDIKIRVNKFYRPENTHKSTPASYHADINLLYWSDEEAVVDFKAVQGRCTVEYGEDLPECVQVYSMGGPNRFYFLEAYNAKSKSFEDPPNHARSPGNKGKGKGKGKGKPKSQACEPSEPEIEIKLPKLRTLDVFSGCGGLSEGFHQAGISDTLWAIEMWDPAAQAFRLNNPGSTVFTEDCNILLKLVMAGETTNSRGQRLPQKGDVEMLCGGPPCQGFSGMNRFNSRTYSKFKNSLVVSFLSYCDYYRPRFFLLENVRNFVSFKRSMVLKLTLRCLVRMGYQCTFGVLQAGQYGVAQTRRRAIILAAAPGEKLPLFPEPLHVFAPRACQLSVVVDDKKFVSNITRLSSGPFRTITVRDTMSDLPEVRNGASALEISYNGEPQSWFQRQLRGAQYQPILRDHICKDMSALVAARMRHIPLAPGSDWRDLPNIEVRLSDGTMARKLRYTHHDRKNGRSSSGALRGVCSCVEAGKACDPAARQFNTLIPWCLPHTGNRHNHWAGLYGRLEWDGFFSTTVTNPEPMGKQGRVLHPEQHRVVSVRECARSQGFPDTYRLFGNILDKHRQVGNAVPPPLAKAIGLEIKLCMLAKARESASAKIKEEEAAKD

Take `CCc1c(C#N)c(SC(C(N)=O)c2ccccc2)nc(N2CCC[C@H](NCC(F)F)C2)c1C#N` (stereo partly drawn) [Example 690, 2-((3,5-dicyano-6-((S)-3-((2,2-difluoroethyl)amino)piperidin-1-yl)-4-ethylpyridin-2-yl)thio)-2-phenylacetamide]: the “DNMT1 BioChemical (pIC50 category)” value in test [1] (setting [3]) is recorded as “D (Category D: ≥6.5)”. For the same molecule, the EC50 in test [2] was 1 to 31.6 µM.
With `CCOc1c(C#N)c(SC(C)C(N)=O)nc(N2CCCN(CCO)CC2)c1C#N` (stereo not shown) [Example 212, 2-((3,5-Dicyano-4-ethoxy-6-(4-(2-hydroxyethyl)-1,4-diazepan-1-yl)pyridin-2-yl)thio)propanamide], the IC50 in test [1] (setting [4]) is 0.316 to 1 µM. The EC50 in test [2] was 1 to 31.6 µM.
Take `CCc1c(C#N)c(SC(C(N)=O)c2ccc(C(N)=O)cc2)nc(N2CCCN(C)CC2)c1C#N` (stereo not shown) [Example 368, 4-(2-Amino-1-((3,5-dicyano-4-ethyl-6-(4-methyl-1,4-diazepan-1-yl)pyridin-2-yl)thio)-2-oxoethyl)benzamide]: the “DNMT1 BioChemical (pIC50 category)” value in test [1] (setting [3]) is on record as “D (Category D: ≥6.5)”. In addition, the EC50 in test [2] was above 31.6 µM.
Take `N#Cc1c(SC(C(N)=O)c2ccccc2)nc(N2CCNC(CO)C2)c(C#N)c1C1CC1` (stereo not shown) [Example 14, 2-({3,5-dicyano-4-cyclopropyl-6-[3-(hydroxymethyl)piperazin-1-yl]pyridin-2-yl}sulfanyl)-2-phenylacetamide]: in test [1] (setting [3]), the “DNMT1 BioChemical (pIC50 category)” value is listed as “D (Category D: ≥6.5)”. Further, the EC50 in test [2] is 0.316 to 1 µM.
The like results for `CCc1c(C#N)c(SCc2ccc(N(C)S(C)(=O)=O)cc2)nc(N2CCC(NCCOC)CC2)c1C#N` [Example 557, N-(4-(((3,5-dicyano-4-ethyl-6-(4-((2-methoxyethyl)amino)piperidin-1-yl)pyridin-2-yl)thio)methyl)phenyl)-N-methylmethanesulfonamide] were, in that order, “D (Category D: ≥6.5)” and below 0.316 µM.
The matching figures for `CSc1c(C#N)c(SCc2ccc(CNC(C)=O)cc2)nc(N2CCCN(C)CC2)c1C#N` [Example 101, N-(4-(((3,5-Dicyano-6-(4-methyl-1,4-diazepan-1-yl)-4-(methylthio)pyridin-2-yl)thio)methyl)benzyl)acetamide]: “D (Category D: ≥6.5)” and 0.316 to 1 µM.
Turning to `CCc1c(C#N)c(SC(C(N)=O)c2ccccc2)nc(N(C)CC(=O)N2C[C@H](CO)[C@@H](O)C2)c1C#N` (stereo partly drawn) [Example 664, 2-((3,5-dicyano-4-ethyl-6-((2-((3R,4R)-3-hydroxy-4-(hydroxymethyl)pyrrolidin-1-yl)-2-oxoethyl)(methyl)amino)pyridin-2-yl)thio)-2-phenylacetamide], the “DNMT1 BioChemical (pIC50 category)” value in test [1] (setting [3]) is “D (Category D: ≥6.5)”. Also, the EC50 in test [2] was 1 to 31.6 µM.
As for `CCc1c(C#N)c(S[C@@H](C(N)=O)c2ccccc2)nc(N2CC[C@H](OP(=O)(O)O)C2)c1C#N` [Example 418, (S)-1-(6-(((R-2-amino-2-oxo-1-phenylethyl)thio-3,5-dicyano-4-ethylpyridin-2-yl)pyrrolidin-3-yldihydrogen phosphate], the IC50 in test [1] (setting [4]) is 1 to 31.6 µM. Besides, the EC50 in test [2] is above 31.6 µM.
With `CCc1c(C#N)c(SC(C(N)=O)c2ccc(F)cc2)nc(N2CCC(N3CC(OC)C3)CC2)c1C#N` (stereo not shown) [Example 698, 2-((3,5-dicyano-4-ethyl-6-(4-(3-methoxyazetidin-1-yl)piperidin-1-yl)pyridin-2-yl)thio)-2-(4-fluorophenyl)acetamide], the “DNMT1 BioChemical (pIC50 category)” value in test [1] (setting [3]) was “D (Category D: ≥6.5)”. Moreover, the EC50 in test [2] is below 0.316 µM.
Regarding `CCc1c(C#N)c(SC(C(N)=O)c2cncc(C)c2)nc(N2CCCN(C)CC2)c1C#N` (stereo not shown) [Example 266], the IC50 in test [1] (setting [4]) was 1 to 31.6 µM; in test [1] (setting [5]) it was ≥ 1 µM and 2 µM. Further, the EC50 in test [2] was 0.316 to 1 µM.
Consider `CCc1c(C#N)c(SC(C(N)=O)c2ccccc2)nc(N(C)CCN)c1C#N` (stereo not shown) [Example 144, 2-((6-((2-Aminoethyl)(methyl)amino)-3,5-dicyano-4-ethylpyridin-2-yl)thio)-2-phenylacetamide, Trifluoroacetic Acid Salt], for which the “DNMT1 BioChemical (pIC50 category)” value in test [1] (setting [3]) was “D (Category D: ≥6.5)”. For the same molecule, the EC50 in test [2] is below 0.316 µM.
The matching figures for `CCc1c(C#N)c(SC(C(N)=O)c2ccccc2)nc(N(C)CC(=O)NC(CO)CO)c1C#N` (stereo not shown) [Example 658, 2-((6-((2-amino-2-oxo-1-phenylethyl)thio)-3,5-dicyano-4-ethylpyridin-2-yl)(methyl)amino)-N-(1,3-dihydroxypropan-2-yl)acetamide]: “D (Category D: ≥6.5)” and 1 to 31.6 µM.
Turning to `CCc1c(C#N)c(SCc2ccc(N(C)S(C)(=O)=O)cc2)nc(N(C)CCNC2(C)CC2)c1C#N` [Example 481, N-(4-(((3,5-dicyano-4-ethyl-6-(methyl(2-((1-methylcyclopropyl)amino)ethyl)amino)pyridin-2-yl)thio)methyl)phenyl)-N-methylmethanesulfonamide], in test [1] (setting [3]), the “DNMT1 BioChemical (pIC50 category)” value is “D (Category D: ≥6.5)”. Besides, the EC50 in test [2] is below 0.316 µM.
For `CN(CCOC(N)=O)c1nc(SC(C(N)=O)c2ccccc2)c(C#N)c(C2CC2)c1C#N` (stereo not shown) [Example 397, 2-((6-((2-Amino-2-oxo-1-phenylethyl)thio-3,5-dicyano-4-cyclopropylpyridin-2-yl)methyl)amino)ethyl carbamate], the IC50 in test [1] (setting [4]) was 0.316 to 1 µM. In test [2], the EC50 was 1 to 31.6 µM.
For the molecule `CCc1c(C#N)c(SC(C(N)=O)c2ccccc2)nc(N(C)CC(=O)N2CCCC2)c1C#N` (stereo not shown) [Example 620, 2-((3,5-dicyano-4-ethyl-6-(methyl(2-oxo-2-(pyrrolidin-1-yl)ethyl)amino)pyridin-2-yl)thio)-2-phenylacetamide], the “DNMT1 BioChemical (pIC50 category)” value in test [1] (setting [3]) is given as “D (Category D: ≥6.5)”. Moreover, in test [2], the EC50 is below 0.316 µM.
The like results for `CCc1c(C#N)c(SC(C(N)=O)c2ccccc2)nc(N2CCOC(CNC)C2)c1C#N` (stereo not shown) [Example 563, 2-((3,5-dicyano-4-ethyl-6-(2-((methylamino)methyl)morpholino)pyridin-2-yl)thio)-2-phenylacetamide] were, in that order, “D (Category D: ≥6.5)” and below 0.316 µM.
The like results for `CCc1c(C#N)c(SC(C(N)=O)c2ccccc2)nc(N2CCC[C@H](NCC(C)(C)C)C2)c1C#N` (stereo partly drawn) [Example 651, 2-((3,5-dicyano-4-ethyl-6-((S)-3-(neopentylamino)piperidin-1-yl)pyridin-2-yl)thio)-2-phenylacetamide] were, in that order, “D (Category D: ≥6.5)” and below 0.316 µM.
The matching figures for `CCc1c(C#N)c(SC(C(N)=O)c2ccccc2)nc(N2CC(ONC(=N)N)C2)c1C#N` (stereo not shown) [Example 676, 2-((3,5-dicyano-4-ethyl-6-(3-(guanidinooxy)azetidin-1-yl)pyridin-2-yl)thio)-2-phenylacetamide]: “D (Category D: ≥6.5)” and 1 to 31.6 µM.
With `CCc1c(C#N)c(SC(C(N)=O)c2ccccc2)nc(N2CCC(C)(NCC(F)F)CC2)c1C#N` (stereo not shown) [Example 232], the IC50 in test [1] (setting [4]) is 0.316 to 1 µM. Further, the EC50 in test [2] is 0.316 to 1 µM.
For the molecule `CCc1c(C#N)c(SC(C(N)=O)c2ccccc2)nc(N2CCN(CCCN(C)C)CC2)c1C#N` (stereo not shown) [Example 120], the IC50 in test [1] (setting [4]) and in test [1] (setting [5]) was 0.316 to 1 µM in each case. Besides, the EC50 in test [2] is below 0.316 µM.
Take `CCc1c(C#N)c(SC(C(N)=O)c2ccccc2F)nc(N2CC[C@H](O)C2)c1C#N` (stereo partly drawn) [Example 682, 2-((3,5-dicyano-4-ethyl-6-((S)-3-hydroxypyrrolidin-1-yl)pyridin-2-yl)thio)-2-(2-fluorophenyl)acetamide]: the “DNMT1 BioChemical (pIC50 category)” value in test [1] (setting [3]) was “D (Category D: ≥6.5)”. Also, the EC50 in test [2] was 1 to 31.6 µM.
For the molecule `CCc1c(C#N)c(SC(C(N)=O)c2ccccc2)nc(N2CCC(OP(=O)(O)O)C2)c1C#N` (stereo not shown) [Example 150, 1-(6-((2-Amino-2-oxo-1-phenylethyl)thio)-3,5-dicyano-4-ethylpyridin-2-yl)pyrrolidin-3-yl dihydrogen phosphate], in test [1] (setting [4]), the IC50 was 1 to 31.6 µM. Further, the EC50 in test [2] is above 31.6 µM.
On to `CCc1c(C#N)c(SCc2ccc(N(C)S(C)(=O)=O)cc2)nc(N(C)CCN(C)C)c1C#N` [Example 482, N-(4-(((3,5-dicyano-6-((2-(dimethylamino)ethyl)(methyl)amino)-4-ethylpyridin-2-yl)thio)methyl)phenyl)-N-methylmethanesulfonamide], for which the “DNMT1 BioChemical (pIC50 category)” value in test [1] (setting [3]) is “D (Category D: ≥6.5)”. In addition, the EC50 in test [2] is below 0.316 µM.
As for `CCOc1c(C#N)c(SCc2ccc(CNC(C)=O)cc2)nc(N2CCCN(C)CC2)c1C#N` [Example 105, N-(4-(((3,5-Dicyano-4-ethoxy-6-(4-methyl-1,4-diazepan-1-yl)pyridin-2-yl)thio)methyl)benzyl)acetamide], the “DNMT1 BioChemical (pIC50 category)” value in test [1] (setting [3]) is on record as “D (Category D: ≥6.5)”. Moreover, the EC50 in test [2] was 1 to 31.6 µM.
With `CCc1c(C#N)c(SCc2ccc(-c3cccnc3)cc2)nc(N2CCC(N3CCCC3)CC2)c1C#N` [Example 337, 4-Ethyl-2-((4-(pyridin-3-yl)benzyl)thio)-6-(4-(pyrrolidin-1-yl)piperidin-1-yl)pyridine-3,5-dicarbonitrile], the figures for the IC50 in test [1] (setting [4]) and in test [1] (setting [5]) were 0.316 to 1 µM and 3.16 µM, respectively. In test [2], the EC50 is above 31.6 µM.
On to `CCc1c(C#N)c(SC(C(N)=O)c2ccsc2)nc(N2CCNCC2)c1C#N` (stereo not shown) [Example 263, 2-(3,5-Dicyano-4-ethyl-6-(piperazin-1-yl)pyridin-2-ylthio)-2-(thiophen-3-yl)acetamide], for which, in test [1] (setting [4]), the IC50 is 0.316 to 1 µM. In test [2], the EC50 is 0.316 to 1 µM.
